Here are results for 12 compounds from patent EP3130594B1, “PHOSPHONATES OF ACETYLENIC BETULIN DERIVATIVES WITH ANTICANCER ACTIVITY, METHOD FOR THEIR PRODUCTION AND THEIR APPLICATION” (Slaski Uniwersytet Medyczny w Katowicach, priority 2015, dated 2017).

In brackets after ≈: the same amount, converted by molar mass.

Assay in all cases: Cytotoxic activity in vitro, WST1 test
Background: Tetrazolium dyes change colour on reduction, which living cells bring about.

The test system of one data set is brain glioma SNB-19. It counts as cell-based. The note with it: Homo sapiens, SNB-19 cells, read-out: Cytotoxic activity in vitro as IC50. On the procedure:
(§1) The evaluation of cytotoxic activity of the compounds described with Formula 2 was carried out against human cancer cells [brain glioma SNB-19, breast cancer T47D, melanoma C32] using WST1 tests (Table 1).

The next data set deals with breast cancer T47D. The class given is cell-based, human. The note with it: T47D cells, Neg = no activity in the applied concentration range; for IC50: Homo sapiens, read-out: Cytotoxic activity in vitro as IC50. The protocol: as §1
Another data set deals with melanoma C32. The class given is cell-based. The note with it: Homo sapiens, C32 cells, read-out: Cytotoxic activity in vitro as IC50. The protocol: as §1

A word on the IC50: it is the concentration at which inhibition is half-maximal. Regarding `C#CC(=O)OC[C@]12CC[C@@H](/C(C)=C/P(=O)(OCC)OCC)[C@@H]1[C@H]1CC[C@@H]3[C@@]4(C)CC[C@H](OC(=O)C#C)C(C)(C)[C@@H]4CC[C@@]3(C)[C@]1(C)CC2` [R=R1=Et, R2=HC≡CC(O)O, R3 = CH2C(O)C≡CH, 29-Diethoxyphosphoryl-3,28-dipropynoylbetulin], the IC50 was found to be 0.6 ± 0.1 µg/mL (≈ 0.879 µM) with brain glioma SNB-19 and 2.8 ± 0.6 µg/mL (≈ 4.1 µM) with breast cancer T47D.
In the case of `CC#CC(=O)OC[C@]12CC[C@@H](/C(C)=C/P(=O)(OCC)OCC)[C@@H]1[C@H]1CC[C@@H]3[C@@]4(C)CC[C@H](OC(=O)C#CC)C(C)(C)[C@@H]4CC[C@@]3(C)[C@]1(C)CC2` [3,28-Di(2-butynoyl)-29-diethoxyphosphorylbetulin], the results for the IC50 in the data set with brain glioma SNB-19, with melanoma C32 and in the data set with breast cancer T47D were 7.6 ± 1 µg/mL (≈ 10.7 µM), 4.9 ± 0.3 µg/mL (≈ 6.89 µM) and 13.9 ± 3.4 µg/mL (≈ 19.6 µM), respectively.
For the compound `CCOP(=O)(/C=C(/C)[C@@H]1CC[C@]2(CO)CC[C@]3(C)[C@H](CC[C@@H]4[C@@]5(C)CC[C@H](O)C(C)(C)[C@@H]5CC[C@]43C)[C@@H]12)OCC` [cis R = R1 = Et, R2 =OH, R3 = CH2OH, Z - 29 - Diethoxyphosphorylbetulin], the half-inhibitory concentration (IC50) in the data set with brain glioma SNB-19 turned out to be 4.8 ± 0.1 µg/mL (≈ 8.29 µM); in the data set with breast cancer T47D, 0.9 ± 0.1 µg/mL (≈ 1.55 µM).
As for `CCOP(=O)(/C=C(\C)[C@@H]1CC[C@]2(COC(=O)C#CC3CC3)CC[C@]3(C)[C@H](CC[C@@H]4[C@@]5(C)CC[C@H](OC(=O)C#CC6CC6)C(C)(C)[C@@H]5CC[C@]43C)[C@@H]12)OCC` [3,28-Di(cyclopropylpropynoyl)-29-diethoxyphosphorylbetulin], the IC50 worked out at 40.4 ± 6.8 µg/mL (≈ 52.9 µM) in the data set with brain glioma SNB-19, 9.4 ± 0.2 µg/mL (≈ 12.3 µM) with melanoma C32 and 79.5 ± 1.9 µg/mL (≈ 104 µM) in the data set on breast cancer T47D.
With `CC#CC(=O)OC[C@]12CC[C@@H](/C(C)=C/P(=O)(OCC)OCC)[C@@H]1[C@H]1CC[C@@H]3[C@@]4(C)CC[C@H](O)C(C)(C)[C@@H]4CC[C@@]3(C)[C@]1(C)CC2` [R = R1 =Et, R2 =HO, R3 =CH2OC(O)C ≡ CCH3, 28-(2-butynoyl)-29-diethoxyphosphorylbetulin], the IC50 in the data set on brain glioma SNB-19 was 7.5 ± 0.3 µg/mL (≈ 11.6 µM); in the data set with melanoma C32, 4.9 ± 0.1 µg/mL (≈ 7.6 µM); with breast cancer T47D, 9.6 ± 0.6 µg/mL (≈ 14.9 µM).
For the compound `CCOP(=O)(/C=C(\C)[C@@H]1CC[C@]2(COC(=O)C#CC3CC3)CC[C@]3(C)[C@H](CC[C@@H]4[C@@]5(C)CC[C@H](O)C(C)(C)[C@@H]5CC[C@]43C)[C@@H]12)OCC` [28-cyclopropylpropynoyl-29-diethoxyphosphorylbetulin], the results for the IC50 in the data set with brain glioma SNB-19, in the data set with melanoma C32 and in the data set with breast cancer T47D were 2.2 ± 0.8 µg/mL (≈ 3.28 µM), 4.7 ± 0.7 µg/mL (≈ 7.01 µM) and 8.2 ± 0.6 µg/mL (≈ 12.2 µM), respectively.
With `C#CC(=O)OC[C@]12CC[C@@H](/C(C)=C/P(=O)(OCC)OCC)[C@@H]1[C@H]1CC[C@@H]3[C@@]4(C)CC[C@H](O)C(C)(C)[C@@H]4CC[C@@]3(C)[C@]1(C)CC2` [R = R1 = Et, R2 = HO, R3 =CH2C(O)C≡CH, 29-Diethoxyphosphoryl-28-propynoylbetulin], the IC50 in the data set on brain glioma SNB-19 is 0.3 ± 0.1 µg/mL (≈ 0.476 µM); in the data set on breast cancer T47D, 0.4 ± 0.1 µg/mL (≈ 0.634 µM).
For the compound `C=C(C)[C@@H]1CC[C@]2(CO)CC[C@]3(C)[C@H](CC[C@@H]4[C@@]5(C)CC[C@H](O)C(C)(C)[C@@H]5CC[C@]43C)[C@@H]12` [Betulin, lup-20(29)-ene-3β,28-diol], the IC50 in the data set on brain glioma SNB-19 was 23.5 ± 2 µg/mL (≈ 53.1 µM); with breast cancer T47D, 77.9 ± 4 µg/mL (≈ 176 µM).
As to `C#CCOC(=O)OC[C@]12CC[C@@H](/C(C)=C/P(=O)(OCC)OCC)[C@@H]1[C@H]1CC[C@@H]3[C@@]4(C)CC[C@H](O)C(C)(C)[C@@H]4CC[C@@]3(C)[C@]1(C)CC2` [29-Diethoxyphosphoryl-28-propargyloxycarbonylbetulin], the IC50 is 24.5 ± 12.6 µg/mL (≈ 37.1 µM) with brain glioma SNB-19, 5.9 ± 0.3 µg/mL (≈ 8.93 µM) with melanoma C32 and 49.4 ± 6.1 µg/mL (≈ 74.7 µM) in the data set on breast cancer T47D.
With `C=C(CP(=O)(OCC)OCC)[C@@H]1CC[C@]2(COC(C)=O)CC[C@]3(C)[C@H](CC[C@@H]4[C@@]5(C)CC[C@H](OC(C)=O)C(C)(C)[C@@H]5CC[C@]43C)[C@@H]12` [R = R1 = Et, R2 = AcO, R3 = CH2OAc, 3, 28 - Diacetyl - 30 - diethoxyphosphorylbetulin], the figures for the IC50 with brain glioma SNB-19 and with breast cancer T47D were 51.9 ± 0.8 µg/mL (≈ 78.3 µM) and 58 ± 3.4 µg/mL (≈ 87.5 µM), respectively.
Turning to `CCOP(=O)(/C=C(\C)[C@@H]1CC[C@]2(CO)CC[C@]3(C)[C@H](CC[C@@H]4[C@@]5(C)CC[C@H](O)C(C)(C)[C@@H]5CC[C@]43C)[C@@H]12)OCC` [trans R = R1 =Et, R2= OH, R3 = CH2OH, E-29-Diethoxyphosphorylbetulin], the IC50 in the data set on brain glioma SNB-19 was 5.9 ± 0.4 µg/mL (≈ 10.2 µM); in the data set with breast cancer T47D it was 6.2 ± 0.5 µg/mL (≈ 10.7 µM).
`C#CCOC(=O)OC[C@]12CC[C@@H](/C(C)=C/P(=O)(OCC)OCC)[C@@H]1[C@H]1CC[C@@H]3[C@@]4(C)CC[C@H](OC(=O)OCC#C)C(C)(C)[C@@H]4CC[C@@]3(C)[C@]1(C)CC2` [29-diethoxyphosphoryl-3,28-di(propargyloxycarbonyl)betulin]: the figures for the IC50 with brain glioma SNB-19 and in the data set with melanoma C32 were 0.5 ± 0.1 µg/mL (≈ 0.673 µM) and 51.7 ± 4.8 µg/mL (≈ 69.6 µM), respectively. Moreover, in the data set on breast cancer T47D, the “Cytotoxic activity in vitro as IC50” value is recorded as “Neg”.
